Results on 76 molecules are retold here after paper PMC12040169 (PLOS Biology, 2025).

What is called viability is a read-out of living cells in per cent, often relative to untreated cells.

Each structure is given as a SMILES string.

The nature of the first series: in vitro. The following applies: human, hela cells, % viability.
In the case of `CC1=NN(c2ccc(S(N)(=O)=O)cc2)C(=O)/C1=C\c1ccc(-c2ccc(Cl)c([N+](=O)[O-])c2)o1` [CBK263612], the viability at 28.5 h, 10 µM came to 98.8%.
For the molecule `O=C(/C=C/c1ccc([N+](=O)[O-])cc1)Nc1ccc(O)cc1C(=O)O` [CBK263613], the viability at 28.5 h, 10 µM is 81%.
Consider `O=C(/C=C/c1cccc([N+](=O)[O-])c1)Nc1ccc(O)cc1C(=O)O` [CBK263615], for which the viability at 28.5 h, 10 µM came to 87.3%.
As for `CC(NC(=O)/C(=C\c1ccc(Cl)cc1)NC(=O)c1ccco1)C(=O)O` (stereo not shown) [CBK263617], the viability at 28.5 h, 10 µM was 93%.
As for `Cc1nc(SCC(=O)O)nc(O)c1Oc1ccccc1` [CBK263621], the viability at 28.5 h, 10 µM amounted to 103%.
Regarding `OCCN(CC#CCC(O)(c1ccccc1)c1ccccc1)CCO` [CBK263623], the viability at 28.5 h, 10 µM was 94.1%.
On to `O=C(NCCN1CCOCC1)c1cc(-c2cccc(Br)c2)nc2ccccc12` [CBK263625], for which the viability at 28.5 h, 10 µM was 90.2%.
As to `COc1cc2nc3c4ccccc4n(CC(=O)O)c3nc2cc1OC` [CBK263626], the viability at 28.5 h, 10 µM turned out to be 86.8%.
Same read-out and setting: the result for `COc1ccc(OC(C)C(=O)Nc2cc(OC)c(Cl)cc2OC)cc1` (stereo not shown) [CBK263627] reads 96%.
On to `COC(=O)CCNc1nc(-c2ccc(Br)cc2)nc2ccccc12` [CBK263628], for which the viability at 28.5 h, 10 µM was 97.9%.
The same measure, in the same setting: the result for `O=C(NCCCN1CCOCC1)c1c(Cl)cccc1Cl` [CBK263631] reads 93%.
`COc1ccc(CN2CCN(Cc3cc(Br)ccc3O)CC2)cc1OC` [CBK263632]: the viability at 28.5 h, 10 µM was determined as 95.5%.
On the same count and under the same terms, the result for `O=C(CCCN1C(=O)/C(=C\c2cccs2)SC1=S)Nc1cccc(C(=O)O)c1` [CBK263636] reads 98.4%; that for `O=C(c1cccnc1)N1CCN(CCN2C(=O)C3C4C=CC(C4)C3C2=O)CC1` (stereo not shown) [CBK263639], 98.2%; that for `CC(C)(C)c1ccc(/C=C/C(=O)n2cccn2)cc1` [CBK263645], 85.7%.
Turning to `COc1ccc(C2CC(=O)C(=CNCCCN3CCOCC3)C(=O)C2)cc1` (stereo not shown) [CBK263647], the viability at 28.5 h, 10 µM was found to be 84.9%.
For `Cc1ccc(C)c(NC(=O)c2sc3cc(C)ccc3c2Cl)c1` [CBK263648], the viability at 28.5 h, 10 µM was 90.3%.
As to `Cc1ccnc(NS(=O)(=O)c2ccc(NC(=O)c3cc(-c4ccc(Br)cc4)nc4ccccc34)cc2)n1` [CBK263650], the viability at 28.5 h, 10 µM worked out at 96.8%.
Regarding `CCOc1ccc(/N=c2\scc(-c3ccc(OC)c(Br)c3)n2CCc2ccccc2)cc1` [CBK263654B], the viability at 28.5 h, 10 µM was found to be 74.7%.
Take `COc1cc(/C=C2/SC(=S)N(CCC(=O)N3CCN(C)CC3)C2=O)cc(OC)c1OC` [CBK263656]: the viability at 28.5 h, 10 µM came out at 88.1%.
`COc1ccc(NC(=O)CSc2nc(O)cc(-c3ccccc3)n2)cc1OC` [CBK263657]: the viability at 28.5 h, 10 µM was 96.1%.
The same measure, in the same setting: the result for `Cc1cc(OCC(=O)NCc2cccnc2)cc(C)c1Cl` [CBK263658] reads 86.5%.
With `CCNC(=S)N1CCN(CCNC=C2C(=O)CC(C)(C)CC2=O)CC1` [CBK263661], the viability at 28.5 h, 10 µM came out at 90.1%.
As to `Oc1ccc(Br)cc1CN1CCN(Cc2cccc3ccccc23)CC1` [CBK263662], the viability at 28.5 h, 10 µM came to 87%.
Regarding `CCCCOC(=O)c1ccc(NC(=O)c2c(Cl)cccc2Cl)cc1` [CBK263664], the viability at 28.5 h, 10 µM is 88.2%.
The same measure, in the same setting: under `O=C1CC(c2ccco2)CC(=O)C1=CNCCN1CCNCC1` (stereo not shown) [CBK263668] stands 99.7%.
The same measure, in the same setting: the result for `O=C(CCCN1C(=O)/C(=C\c2cccs2)SC1=S)Nc1cc(Cl)ccc1O` [CBK263673] reads 99.5%.
For the molecule `O=C(O)c1cc(-c2cccnc2)nc2ccc(Br)cc12` [CBK263674], the viability at 28.5 h, 10 µM stood at 105%.
For the molecule `O=C(O)C1C2CCC(O2)C1C(=O)Nc1ccc2c(c1)OCCO2` (stereo not shown) [CBK263677], the viability at 28.5 h, 10 µM was determined as 103%.
For `Cc1ccc(CN2C(=O)CSC2c2cn(-c3ccccc3)nc2-c2ccccc2)cc1` (stereo not shown) [CBK263678], the viability at 28.5 h, 10 µM turned out to be 94.5%.
Turning to `Cc1ccc(C(=O)O)cc1NC(=O)C1CCCCC1C(=O)O` (stereo not shown) [CBK263679], the viability at 28.5 h, 10 µM worked out at 93.5%.
On to `COc1ccc(C(=O)NC(Nc2ccccc2)C(Cl)(Cl)Cl)cc1OC` (stereo not shown) [CBK263680], for which the viability at 28.5 h, 10 µM worked out at 106%.
Regarding `O=C(O)CCC(=O)c1cccc([N+](=O)[O-])c1` [CBK263681], the viability at 28.5 h, 10 µM amounted to 101%.
For the molecule `Cc1ccc2c(Cl)c(-c3nnc(-c4ccc(Cl)cc4)o3)sc2c1` [CBK263682], the viability at 28.5 h, 10 µM was 106%.
As for `CCC12CN3CC(CC)(CN(C1)C3c1ccc([N+](=O)[O-])cc1)C2=O` (stereo not shown) [CBK263689], the viability at 28.5 h, 10 µM is 108%.
Turning to `O=C(CCCOc1ccccc1)Nc1ccc([N+](=O)[O-])cc1` [CBK263690], the viability at 28.5 h, 10 µM was 97.9%.
Take `O=C(NC(=S)Nc1ccc2oc(-c3cccc4ccccc34)nc2c1)c1ccco1` [CBK263691]: the viability at 28.5 h, 10 µM came to 95.5%.
Regarding `c1ccc(CCNc2c3c(nc4ccccc24)CCC3)cc1` [CBK263693C], the viability at 28.5 h, 10 µM amounted to 92.2%.
Same read-out and setting: under `O=C1c2ccccc2C(=O)N1CSc1nnc(SCN2C(=O)c3ccccc3C2=O)s1` [CBK263694] stands 96.9%.
Regarding `CC(C)(C)c1ccc(/C=N/NC(=O)CCSc2ccc(Cl)cc2)cc1` [CBK263696], the viability at 28.5 h, 10 µM stood at 105%.
For the molecule `O=C(Nc1cccc(C(=O)O)c1)/C(=C\c1ccc2c(c1)OCO2)NC(=O)c1ccccc1` [CBK263697], the viability at 28.5 h, 10 µM turned out to be 113%.
Still for that read-out and setting: under `CN1CN=C2SC3(COC(c4cccc(Br)c4)OC3)C(=O)N2C1` (stereo not shown) [CBK263700] stands 93.1%; under `O=C(/C=C/c1ccccc1)ONC(=O)c1ccc(Cl)cc1` [CBK263702], 111%.
Take `COc1ccc(C2Nc3ccccc3C(=O)N2c2ccc(C)cc2)cc1Cn1nc(C)c([N+](=O)[O-])c1C` (stereo not shown) [CBK263703]: the viability at 28.5 h, 10 µM came to 106%.
For `O=C(Nc1cccc(C(=O)O)c1)/C(=C\c1ccccc1)NC(=O)c1ccccc1Cl` [CBK263710], the viability at 28.5 h, 10 µM worked out at 90.4%.
For `Cc1ccc(-c2nn(-c3cc(N4CCN(CCO)CC4)ccc3[N+](=O)[O-])c(=O)c3ccccc23)cc1C` [CBK263713], the viability at 28.5 h, 10 µM came out at 82.6%.
Take `COC(=O)c1cc(Br)ccc1NC(=O)COc1ccccc1C` [CBK263715]: the viability at 28.5 h, 10 µM was 89.4%.
Regarding `CC1CCN(S(=O)(=O)c2cc(S(=O)(=O)N3CCC(C)CC3)c3cccc4c3c2NC4=O)CC1` [CBK263716], the viability at 28.5 h, 10 µM stood at 91.2%.
Take `O=C(Nc1cccc(C(=O)O)c1)/C(=C\c1ccc2c(c1)OCO2)NC(=O)c1ccc(Br)o1` [CBK263720]: the viability at 28.5 h, 10 µM is 99%.
On the same count and under the same terms, under `O=C(NCCCNc1ccc(C(F)(F)F)cc1[N+](=O)[O-])c1ccc(Cl)cc1` [CBK263721] stands 99%; under `O=C(Nc1ccc(C(=O)O)cc1)/C(=C\c1ccco1)NC(=O)c1ccccc1Cl` [CBK263726], 113%.
Same read-out and setting: the result for `CN(C)CCNc1c2c(nc3ccccc13)CCC2` [CBK263732C] reads 98.1%; that for `COCCN(CCOC)Cc1c(O)ccc2c3c(c(=O)oc12)CCC3` [CBK263733], 75.4%.
As to `COc1ccc(/C=N/NC(=O)c2cc[nH]n2)cc1CSc1nc2ccccc2s1` [CBK263734], the viability at 28.5 h, 10 µM is 103%.
Still for that read-out and setting: the result for `N/C(=N\OC(=O)COc1ccc2ccccc2c1)c1ccncc1` [CBK263737] reads 89.1%; that for `NC(=O)c1ccc(NC(=O)COc2ccc3ccccc3c2)cc1` [CBK263738], 101%.
As to `CC(C)C12CN3CC(C(C)C)(CN(C1)C3c1c[nH]c3ccccc13)C2=O` (stereo not shown) [CBK263740], the viability at 28.5 h, 10 µM is 96.1%.
As to `CS(=O)(=O)NCCCNc1ccc(C(F)(F)F)cc1[N+](=O)[O-]` [CBK263741], the viability at 28.5 h, 10 µM was found to be 73.1%.
Take `O=C(/C=C/c1ccccc1)NC(=S)Nc1cccc(-c2nc3ncccc3o2)c1` [CBK263742]: the viability at 28.5 h, 10 µM came to 103%.
Regarding `Cc1ccccc1Nc1nnc(-c2ccc(C(=O)NCCO)cc2)c2ccccc12` [CBK263743], the viability at 28.5 h, 10 µM was 86.4%.
With `Cc1cc(C)c(OCCOCCN2CCN(C)CC2)c(Cl)c1` [CBK263744G], the viability at 28.5 h, 10 µM was determined as 98.6%.
Consider `Cn1cc(/C=C(\C(=O)O)C(C(=O)O)=C2C3CC4CC(C3)CC2C4)c2ccccc21` [CBK263749], for which the viability at 28.5 h, 10 µM is 96.5%.
On the same count and under the same terms, under `O=C(Nc1ccc2ccccc2c1)c1ccccc1N(Cc1ccccc1)S(=O)(=O)c1ccccc1` [CBK263751] stands 91.5%; under `O=C(Nc1cccc2nsnc12)c1ccc(-c2ccc(Br)cc2)o1` [CBK263752], 95.9%.
Turning to `CC(=O)C1=C(O)C(=O)N(CCCO)C1c1cccc([N+](=O)[O-])c1` (stereo not shown) [CBK263753], the viability at 28.5 h, 10 µM came out at 92.6%.
For the molecule `NNC(=O)CN(CCc1ccccc1)S(=O)(=O)c1ccc(Cl)cc1` [CBK263754], the viability at 28.5 h, 10 µM turned out to be 86.2%.
For the molecule `CCOC(=O)C1(C)C=C(Nc2cccc(C)c2)C(=O)N1c1ccccc1` (stereo not shown) [CBK263757], the viability at 28.5 h, 10 µM worked out at 96.8%.
On the same count and under the same terms, the result for `NS(=O)(=O)c1ccc(N2C(=O)C(O)=C(C(=O)c3ccc(Cl)cc3)C2c2ccc([N+](=O)[O-])cc2)cc1` (stereo not shown) [CBK263758] reads 97.2%; that for `O=C(Nc1cccc2ccccc12)c1ccc(CSCc2ccccc2)cc1` [CBK263759], 105%.
Consider `O=C(O)c1ccc(N2C(=O)C(O)=C(C(=O)c3ccccc3)C2c2cccc([N+](=O)[O-])c2)cc1` (stereo not shown) [CBK263760], for which the viability at 28.5 h, 10 µM stood at 92.5%.
For the molecule `COc1ccc(C2C(C(C)=O)=C(O)C(=O)N2CCC(=O)O)cc1` (stereo not shown) [CBK263763], the viability at 28.5 h, 10 µM was found to be 97.3%.
Turning to `CCOc1ccc(N(CC(=O)O)S(=O)(=O)c2ccc(SC)cc2)cc1` [CBK263764], the viability at 28.5 h, 10 µM worked out at 103%.

Still in this series, the particulars now being: human, hela cells, % viability, bulk resorufin, single well.
Turning to `CCOc1cc(C=C2C(=O)NC(=O)NC2=O)ccc1OS(=O)(=O)c1ccc([N+](=O)[O-])cc1` [CBK263614], the viability at 28.5 h, 10 µM is 82.9%.
For the molecule `COc1ccc(CN2CCN(Cc3cc(Br)ccc3O)CC2)cc1` [CBK263640], the viability at 28.5 h, 10 µM was found to be 99.4%.
With `O=C(COc1ccc(C=C2C(=O)NC(=O)NC2=O)cc1)NCC1CCCO1` (stereo not shown) [CBK263709], the viability at 28.5 h, 10 µM stood at 91.9%.
The same measure, in the same setting: under `O=C(COc1ccc(C=C2C(=O)NC(=O)NC2=O)cc1)NCc1ccccc1` [CBK263736] stands 93.3%.
